Experimental data: US20200216432A1, “SULFONAMIDE DERIVATIVES AS STAT3 INHIBITORS FOR THE TREATMENT OF PROLIFERATIVE DISEASES” (King's College London, priority 2017, published 2020)
“Also recorded” adds a separate entry of the source.

Legend:
[1] = molecular target: unphosphorylated STAT3 monomer (uSTAT3) SH2 domain (Homo sapiens, UniProt P40763); assay: Fluorescence polarisation assay for the inhibition of STAT3 dimerisation; assay type: binding; conditions: 350 nM uSTAT3, 10 nM FAM-pYLPQTV, 100 μM ligand; average of triplicate
[2] = test system: STAT3; conditions: following IL-6 stimulation; cited from earlier work
[3] = test system: STAT3; assay: STAT3 dimerization inhibition (unpublished results); conditions: applicants' unpublished results
Text: herein designated RH-06, was identified as being a novel small molecule inhibitor.

[4] = test system: STAT3 dependent cells; conditions: STAT3 dependent cells as compared to STAT3-null cells; cited from earlier work
[5] = test system: A4 (STAT3-null) cancer cell line; assay: MTT cell viability assay, A4; assay type: cell-based; conditions: exposure (table title)
[6] = test system: MDA MB 231 tumours; assay: Human tumour xenograft study; assay type: in vivo, SCID Hairless Outbred (SHO) mice
Protocol: In Vivo Evaluation of Compound 6 in a Human Tumour Xenograft Study
Therefore, it was decided to carry out a preliminary in vivo efficacy study in mice to evaluate the ability of the molecule to reduce the tumour volume in MDA MB 231 tumour bearing mice. The in vivo tumour xenograft study was carried out in SCID Hairless Outbred (SHO) mice, using an intravenous (IV) dosing regimen.
(§1) MDA-MB231 cells were mixed with matrigel (Geltrex, Gibco) before implantation into mice. For tumour generation, 5 million cells in a 50% matrigel mixture were inoculated subcutaneously on both flanks of 8 weeks old SCID Hairless Outbred (SHO) mice purchased from Charles River (Germany). […] The injections were repeated on day 3 and day 5. The sizes of the tumours were regularly measured using a caliper every 2 days. The tumour size of the treated mice was compared with that of the control group (7 untreated mice).

[7] = test system: STAT3 and STAT3-dependent genes; assay: RT-PCR expression of STAT3 and STAT3-dependent genes in LPS-stimulated MDA-MB-231 cells; assay type: cell-based, human; conditions: 25 μM, 8 hours, MDA-MB-231 stimulated with 500 μg/mL LPS
Protocol: Effect of Compounds of the Invention on Expression of STAT3 and STAT3-Dependent Genes.
To probe the STAT3-specific cytotoxicity of the mature ligands, the mRNA expression profile of STAT3 and some STAT3 target genes (i.e., bcl-2, cyclin D1, and fascin) were compared to the reference gene GAPDH using a RT-PCR assay. Initially, the MDA-MB-231 cells were stimulated with 500 μg/mL LPS for 24 hours at 37° C. Following this, the compounds were added at 25 μM to the cells and incubated for another 8 hours at 37° C. Finally, PCR was used to determine changes in the gene expression profiles between stimulated-untreated and stimulated-treated cells.

[8] = General toxicity and weight of treated xenograft mice; assay type: in vivo
Text: as §1
The days of dosing are indicated by vertical dashed lines.

[9] = test system: MDA-MB-231 breast (STAT3-dependent) cancer cell line; assay: MTT cell viability assay, MDA-MB-231; assay type: cell-based, human; conditions: MTT; 48 hours exposure (table title)
[10] = 0.5 mg/Kg IV on days 1, 3 and 5

Sequence of unphosphorylated STAT3 monomer (uSTAT3) SH2 domain (P40763 whole entry, the tested form may be a part): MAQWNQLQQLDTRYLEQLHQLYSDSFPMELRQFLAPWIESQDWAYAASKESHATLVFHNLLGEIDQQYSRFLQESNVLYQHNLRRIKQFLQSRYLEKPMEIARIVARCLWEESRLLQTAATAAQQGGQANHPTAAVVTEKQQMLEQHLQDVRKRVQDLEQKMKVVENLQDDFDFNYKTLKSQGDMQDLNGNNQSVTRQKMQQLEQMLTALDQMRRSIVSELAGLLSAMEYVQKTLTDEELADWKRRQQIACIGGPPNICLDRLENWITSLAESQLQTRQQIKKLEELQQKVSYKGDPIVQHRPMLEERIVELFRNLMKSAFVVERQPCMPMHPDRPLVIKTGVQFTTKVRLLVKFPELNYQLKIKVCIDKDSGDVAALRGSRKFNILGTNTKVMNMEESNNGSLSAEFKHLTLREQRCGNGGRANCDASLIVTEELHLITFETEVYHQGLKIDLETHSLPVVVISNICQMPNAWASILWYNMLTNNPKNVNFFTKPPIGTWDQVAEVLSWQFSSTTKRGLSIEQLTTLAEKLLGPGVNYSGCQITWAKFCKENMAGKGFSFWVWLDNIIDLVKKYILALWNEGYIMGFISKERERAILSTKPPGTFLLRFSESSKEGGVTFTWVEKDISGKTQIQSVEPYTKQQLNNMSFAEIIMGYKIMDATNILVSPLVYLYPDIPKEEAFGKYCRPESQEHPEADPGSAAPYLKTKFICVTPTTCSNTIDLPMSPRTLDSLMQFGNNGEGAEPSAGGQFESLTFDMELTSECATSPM

SMILES: Cc1ccc(-c2sc(C(=O)NCc3cccs3)cc2S(=O)(=O)N2CCCC2)cc1 [RH-06]
- inhibition at 100 µM [1]: 24.2%
- phosphorylation of STAT3 [2]: selectively inhibited phosphorylation of STAT3
- STAT3 dimerization [3]: inhibits STAT3 dimerization
- cytostatic effect [4]: selectively cytostatic

SMILES: COC(=O)c1ccc(N(C)S(=O)(=O)c2cc(C(=O)NCc3ccc(CN4CCCCC4)cc3)sc2-c2ccnc(N3CCNCC3)c2)cc1 [Compound 6, methyl 4-((N-methyl-2-(2-(piperazin-1-yl)pyridin-4-yl)-5-((4-(piperidin-1-ylmethyl)benzyl)carbamoyl)thiophene)-3-sulfonamido)benzoate]
- inhibition at 100 µM [1]: > 50%
- IC50 [5]: 73.2 µM
- tumour volume compared to the control group ([6]; 0.5 mg/Kg IV (tail vein) on days 1, 3 and 5): significant reduction; also recorded: remained low and near the baseline
- tumour volume after dosing was stopped ([6]; after dosing stopped on day 5, 0.5 mg/Kg IV): no significant increase in tumour volume
- Bcl-2 mRNA expression (RT-PCR) [7]: very weak expression
- STAT1 mRNA expression (RT-PCR) [7]: without showing any effect
- STAT3 mRNA expression (RT-PCR) [7]: Almost no expression
- cyclin D1 mRNA expression (RT-PCR) [7]: Almost no expression
- fascin mRNA expression (RT-PCR) [7]: Almost no expression
- house-keeping gene GAPDH mRNA expression (RT-PCR) [7]: without showing any effect
- organ changes after sacrifice [8, 10]: no organ changes were observed
- signs of toxicity [8, 10]: did not show any signs of toxicity
- weight of the treated mice [8, 10]: initially lost some weight post-treatment, but regained the weight after 14 days
- survival of treated mice ([8]; SCID Hairless Outbred (SHO), mouse, in vivo): ≥ 21 days
- IC50 (MDA-MB-231) [9]: sub-micromolar
